# Target: T1, CFTR (primary human bronchial epithelial cells from a ΔF508 homozygous CF donor, CF-HBE cells) (Homo sapiens, UniProt P13569, DEL508-508)
# T1 construct: Primary human bronchial epithelial cells from a ΔF508 homozygous CF donor; host or cells: primary human bronchial epithelial cells (CF-HBE) from a ΔF508 homozygous CF donor
# Experiment: TECC24 recording of CFTR-mediated transepithelial chloride transport (TECC24 AUC fold over DMSO @ 3 μM)
# Assay type: cell-based
# Details: 3 uM test agent; CF-HBE cells (ΔF508 homozygous) incubated 48 h; ratio of test agent AUC of forskolin-stimulated IEQ to vehicle (DMSO) AUC
# Protocol: Example 510: TECC24 AUC Fold Over DMSO @ 3 μM
# The effects of a test agent on CFTR-mediated transepithelial chloride transport was measured using TECC24 recording analysis. Test agents were solubilized in DMSO. Solubilized test agents were mixed with incubation medium containing DMEM/F12, Ultroser G (2%; Crescent Chemical, catalog #67042), Hyclone Fetal Clone H (2%; GE Healthcare, catalog #SH30066.02), bovine brain extract (0.25%; Lonza, catalog #CC-4098), insulin (2.5 μg/mL), IL-13 (10 ng/mL), hydrocortisone (20 nM), transferrin (2.5 μg/mL), triiodothyronine (500 nM), ethanolamine (250 nM), epinephrine (1.5 μM), phosphoethanolamine (250 nM), and retinoic acid (10 nM). Primary human bronchial epithelial cells from a ΔF508 homozygous CF donor (CF-HBE cells; from University of North Carolina Cystic Fibrosis Tissue Procurement Center), grown on Transwell HTS 24-well cell culture inserts (Costar, catalog #3378), were exposed to test agents or controls dissolved in incubation medium. The CF-HBE cells were cultured at 36.5° C. for 48 h before TECC24 recordings were performed in the presence or absence of test agent, a positive control or vehicle (DMSO).
# Following incubation, the transwell cell culture inserts containing the test agent or control-treated CF-HBE cells were loaded onto a TECC24 apparatus (TECC v7 or MTECC v2; EP Design) to record the transepithelial voltage (VT) and resistance (TEER) using 4 AgCl electrodes per well configured in current-clamp mode. The apical and basolateral bath solutions both contained (in mM) 140 NaCl, 5 KCl, 2 CaCl2), 1 MgCl2, 10 Hepes, and 10 glucose (adjusted to pH 7.4 with NaOH) […]. To inhibit basal Na+ absorption, the ENaC inhibitor benzamil (10 μM) was added to the bath. Then, the adenylate cyclase activator, forskolin (10 μM), was added to the bath to activate CFTR. The forskolin-stimulated Cl− transport was halted by addition of bumetanide (20 μM), an inhibitor of the basolateral chloride co-transporter NKCC1, to the bath to confirm that the detected signal was chloride dependent. VT and TEER recordings were digitally acquired at routine intervals using TECC or MTECC software (EP Design). VT and TEER were transformed into equivalent transepithelial Cl− current (IEQ), and the Area Under the Curve (AUC) of the IEQ time course between forskolin and bumetanide addition is generated using Excel (Microsoft). Efficacy is expressed as the ratio of the test agent AUC divided by vehicle AUC. EC50s based on AUC are generated using the non-linear regression log(agonist) vs. response function in Prism software (GraphPad) with Hill Slope fixed=1.
# If a test agent increased the AUC of the forskolin-stimulated IEQ relative to vehicle in CF-HBE cells, and this increase was inhibited by bumetanide, then the test agent was considered a CFTR corrector.
# T1 sequence (P13569 with tags, fused parts or gaps DEL508-508): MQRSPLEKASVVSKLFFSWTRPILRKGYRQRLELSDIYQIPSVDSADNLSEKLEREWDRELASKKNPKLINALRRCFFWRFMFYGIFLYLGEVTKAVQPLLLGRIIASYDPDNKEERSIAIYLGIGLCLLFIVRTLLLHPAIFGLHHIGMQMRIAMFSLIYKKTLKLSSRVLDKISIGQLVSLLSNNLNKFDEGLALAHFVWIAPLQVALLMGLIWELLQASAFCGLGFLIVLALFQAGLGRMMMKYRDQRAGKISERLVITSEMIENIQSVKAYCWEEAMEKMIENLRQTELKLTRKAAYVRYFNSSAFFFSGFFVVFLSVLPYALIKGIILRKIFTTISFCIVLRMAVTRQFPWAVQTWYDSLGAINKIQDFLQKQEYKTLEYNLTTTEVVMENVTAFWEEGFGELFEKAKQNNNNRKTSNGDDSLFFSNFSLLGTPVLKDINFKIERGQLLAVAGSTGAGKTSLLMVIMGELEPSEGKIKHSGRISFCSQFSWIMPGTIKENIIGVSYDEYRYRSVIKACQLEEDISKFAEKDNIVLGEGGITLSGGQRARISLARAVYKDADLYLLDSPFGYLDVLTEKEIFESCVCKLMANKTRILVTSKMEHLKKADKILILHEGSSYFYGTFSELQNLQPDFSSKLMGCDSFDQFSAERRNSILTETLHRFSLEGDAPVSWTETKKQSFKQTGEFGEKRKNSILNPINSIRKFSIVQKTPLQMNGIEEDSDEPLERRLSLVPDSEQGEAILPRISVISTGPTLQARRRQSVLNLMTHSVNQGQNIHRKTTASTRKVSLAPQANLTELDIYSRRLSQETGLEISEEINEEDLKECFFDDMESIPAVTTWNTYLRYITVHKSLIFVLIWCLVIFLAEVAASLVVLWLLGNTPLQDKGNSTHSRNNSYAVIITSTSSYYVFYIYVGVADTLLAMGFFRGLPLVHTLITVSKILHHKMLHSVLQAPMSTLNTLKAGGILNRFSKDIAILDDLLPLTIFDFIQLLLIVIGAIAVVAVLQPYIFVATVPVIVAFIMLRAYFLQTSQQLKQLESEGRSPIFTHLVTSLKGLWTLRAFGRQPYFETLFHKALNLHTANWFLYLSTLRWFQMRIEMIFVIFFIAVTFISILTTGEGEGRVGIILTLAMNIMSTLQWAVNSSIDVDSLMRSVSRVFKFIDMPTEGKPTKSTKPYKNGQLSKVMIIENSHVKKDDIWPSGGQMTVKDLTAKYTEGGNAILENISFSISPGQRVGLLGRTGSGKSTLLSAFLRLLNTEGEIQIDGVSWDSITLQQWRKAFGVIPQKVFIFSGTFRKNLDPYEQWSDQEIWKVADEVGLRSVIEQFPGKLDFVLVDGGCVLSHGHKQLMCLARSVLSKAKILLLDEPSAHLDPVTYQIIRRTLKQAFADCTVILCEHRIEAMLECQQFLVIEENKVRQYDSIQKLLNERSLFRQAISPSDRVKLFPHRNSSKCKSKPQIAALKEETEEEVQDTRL
row,SMILES,TECC AUC vs. DMSO @ 3 uM
1,"Cc1cccc(C)c1-c1nc(NS(=O)(=O)c2ccccc2)sc1-c1cc(F)cc(OCC(C)(C)C)c1 [Example 1, N-(4-(2,6-Dimethylphenyl)-5-(3-fluoro-5-(neopentyloxy)phenyl)thiazol-2-yl)benzenesulfonamide]",A (“A” refers to AUC > 5)
2,"Cc1cccc(C(F)(F)F)c1-c1nc(NS(=O)(=O)c2ccnc(N)c2)sc1-c1cc(F)cc(OCCC(C)(C)C)c1 [Example 15, 2-Amino-N-(5-(3-(3,3-dimethylbutoxy)-5-fluorophenyl)-4-(2-methyl-6-(trifluoromethyl)phenyl)thiazol-2-yl)pyridine-4-sulfonamide]",A (“A” refers to AUC > 5)
3,"Cc1cccc(C)c1-c1nc(NS(=O)(=O)c2ccnc(N)c2)sc1-c1cc(F)cc(OCCC(C)(C)C)c1 [Example 32, 2-Amino-N-(5-(3-(3,3-dimethylbutoxy)-5-fluorophenyl)-4-(2,6-dimethylphenyl)thiazol-2-yl)pyridine-4-sulfonamide]",A (“A” refers to AUC > 5)
4,"Cc1cccc(C)c1-c1nc(NS(=O)(=O)c2ccnc(N)c2)sc1N1CCOC(CCCC(C)(C)C)C1 (stereo not drawn) [Example 37, 2-Amino-N-(5-(2-(4,4-dimethylpentyl)morpholino)-4-(2,6-dimethylphenyl)thiazol-2-yl)pyridine-4-sulfonamide]",A (“A” refers to AUC > 5)
5,"Cc1cccc(C)c1-c1nc(NS(=O)(=O)c2ccccc2)sc1-c1cc(F)cc(OCCC(C)(C)C)c1 [Example 17, N-(5-(3-(3,3-Dimethylbutoxy)-5-fluorophenyl)-4-(2,6-dimethylphenyl)thiazol-2-yl)benzenesulfonamide]",B (“B” refers to AUC 2-5)
6,"Cc1nn(C)cc1S(=O)(=O)Nc1nc(-c2ccccc2C(C)C)c(-c2cccc([C@@H]3CC[C@H](OC(F)(F)F)C3)c2)s1 [Example 46B1, N-(4-(2-Isopropylphenyl)-5-(3-((1R,3S)-3-(trifluoromethoxy)cyclopentyl)phenyl)thiazol-2-yl)-1,3-dimethyl-1H-pyrazole-4-sulfonamide]",A (“A” refers to AUC > 5)
7,"Cc1cccc(C)c1-c1nc(NS(=O)(=O)c2ccccc2)sc1N1C[C@H](OC(C)(C)C)C[C@H]1C [Example 402, N-[4-(2,6-dimethylphenyl)-5-[(2R,4R)-2-methyl-4-[(2-methylpropan-2-yl)oxy]pyrrolidin-1-yl]-1,3-thiazol-2-yl]benzenesulfonamide]",A (“A” refers to AUC > 5)
8,"Cc1cccc(C(F)(F)F)c1-c1nc(NS(=O)(=O)c2cccc(N)n2)sc1-c1cc(F)cc(OCCC(C)(C)C)c1 [Example 312, 6-amino-N-[5-[3-(3,3-dimethylbutoxy)-5-fluorophenyl]-4-[2-methyl-6-(trifluoromethyl)phenyl]-1,3-thiazol-2-yl]pyridine-2-sulfonamide]",A (“A” refers to AUC > 5)
9,"CNc1cccc(S(=O)(=O)Nc2nc(-c3ccccc3C(C)C)c(-c3cccc(OCCC(C)(C)C)c3)s2)c1 [Example 21, N-(5-(3-(3,3-Dimethylbutoxy)phenyl)-4-(2-isopropylphenyl)thiazol-2-yl)-3-(methylamino)benzenesulfonamide]",A (“A” refers to AUC > 5)
10,"CC(C)c1ccccc1-c1nc(NS(=O)(=O)c2cccc(N)c2F)sc1-c1cccc(OCC(F)(F)C(C)(C)C)c1 [Example 23, 3-Amino-N-(5-(3-(2,2-difluoro-3,3-dimethylbutoxy)phenyl)-4-(2-isopropylphenyl)thiazol-2-yl)-2-fluorobenzenesulfonamide]",A (“A” refers to AUC > 5)
11,"CC(C)c1ccccc1-c1nc(NS(=O)(=O)c2cccc(NC3CC(C)(O)C3)c2)sc1-c1ccc(F)c(OCC(F)(F)C(C)(C)C)c1 (stereo not drawn) [Example 24, N-(5-(3-(2,2-Difluoro-3,3-dimethylbutoxy)-4-fluorophenyl)-4-(2-isopropylphenyl)thiazol-2-yl)-3-((3-hydroxy-3-methylcyclobutyl)amino)benzenesulfonamide]",A (“A” refers to AUC > 5)
12,"Cc1nn(C)cc1S(=O)(=O)Nc1nc(-c2ccccc2C(C)C)c(-c2cccc([C@H]3CC[C@H](OC(F)(F)F)C3)c2)s1 [Example 46A2, N-(4-(2-Isopropylphenyl)-5-(3-((1S,3S)-3-(trifluoromethoxy)cyclopentyl)phenyl)thiazol-2-yl)-1,3-dimethyl-1H-pyrazole-4-sulfonamide]",B (“B” refers to AUC 2-5)
13,"Cc1nn(C)cc1S(=O)(=O)Nc1nc(-c2ccccc2C(C)C)c(-c2cccc([C@H]3CC[C@@H](OC(F)(F)F)C3)c2)s1 [Example 46A1, N-(4-(2-Isopropylphenyl)-5-(3-((1S,3R)-3-(trifluoromethoxy)cyclopentyl)phenyl)thiazol-2-yl)-1,3-dimethyl-1H-pyrazole-4-sulfonamide]",C (“C” refers to AUC < 2)
14,"CC(C)c1ccccc1-c1nc(NS(=O)(=O)c2cccc(N)n2)sc1N1CCOC2(CCC(C)(C)C2)C1 (stereo not drawn) [Example 349, 6-amino-N-[5-(3,3-dimethyl-6-oxa-9-azaspiro[4.5]decan-9-yl)-4-(2-propan-2-ylphenyl)-1,3-thiazol-2-yl]pyridine-2-sulfonamide]",A (“A” refers to AUC > 5)
15,"CC(C)c1ccccc1-c1nc(NS(=O)(=O)c2cccc(N)c2F)sc1-c1cccc([C@@H]2CC[C@H](OC(F)(F)F)C2)c1 [Example 48B1, 3-Amino-2-fluoro-N-(4-(2-isopropylphenyl)-5-(3-((1R,3S)-3-(trifluoromethoxy)cyclopentyl)phenyl)thiazol-2-yl)benzenesulfonamide]",B (“B” refers to AUC 2-5)
16,"CNc1cccc(S(=O)(=O)Nc2nc(-c3c(C)cccc3C)c(-c3cccc(OCCC(C)(C)C)c3)s2)c1 [Example 27, N-(5-(3-(3,3-Dimethylbutoxy)phenyl)-4-(2,6-dimethylphenyl)thiazol-2-yl)-3-(methylamino)benzenesulfonamide]",A (“A” refers to AUC > 5)
17,"Cc1cccc(C)c1-c1nc(NS(=O)(=O)c2cn(C)nc2C)sc1N1C[C@H](OC(C)(C)C)C[C@H]1C [Example 495, N-[4-(2,6-dimethylphenyl)-5-[(2R,4R)-2-methyl-4-[(2-methylpropan-2-yl)oxy]pyrrolidin-1-yl]-1,3-thiazol-2-yl]-1,3-dimethylpyrazole-4-sulfonamide]",B (“B” refers to AUC 2-5)
18,"Cc1cccc(C(F)(F)F)c1-c1nc(NS(=O)(=O)c2cccc(N)c2)sc1-c1cccc(OCCC(C)(C)C)c1 [Example 14, 3-Amino-N-(5-(3-(3,3-dimethylbutoxy)phenyl)-4-(2-methyl-6-(trifluoromethyl)phenyl)thiazol-2-yl)benzenesulfonamide]",A (“A” refers to AUC > 5)
19,"O=S(=O)(Nc1nc(-c2ccccc2C(F)(F)F)c(-c2cccc([C@H]3CC[C@@H](OC(F)(F)F)C3)c2)s1)c1ccccc1 (single isomer, unassigned) [Example 44A1]",B (“B” refers to AUC 2-5)
20,"CC(C)c1ccccc1-c1nc(NS(=O)(=O)c2cccc(N)c2F)sc1-c1cccc([C@H]2CC[C@@H](OC(F)(F)F)C2)c1 [Example 48A1, 3-Amino-2-fluoro-N-(4-(2-isopropylphenyl)-5-(3-((1S,3R)-3-(trifluoromethoxy)cyclopentyl)phenyl)thiazol-2-yl)benzenesulfonamide]",A (“A” refers to AUC > 5)
21,"CC(C)c1ccccc1-c1nc(NS(=O)(=O)c2cccc(N)c2)sc1-c1cccc(OCC(F)(F)C(C)(C)C)c1 [Example 490, 3-amino-N-[5-[3-(2,2-difluoro-3,3-dimethylbutoxy)phenyl]-4-(2-propan-2-ylphenyl)-1,3-thiazol-2-yl]benzenesulfonamide]",B (“B” refers to AUC 2-5)

# From patent US20240002374A1, “5-MEMBERED HETEROARYLAMINOSULFONAMIDES FOR TREATING CONDITIONS MEDIATED BY DEFICIENT CFTR ACTIVITY” (Genzyme Corporation, priority 2019, published 2024)
